Laboratory results reported in patent US7157455B2, “4-Aminopyrimidine-5-one derivatives” (Hoffmann-La Roche Inc., priority 2003, dated 2007).
Like-named read-outs stand apart in the source and are kept apart here.

Assays:
human cyclin D1-CDK4 = human cyclin D1-CDK4 (Homo sapiens, UniProt P11802); test: FlashPlate kinase assay, IC50 measurement, cyclin D1-CDK4; type: biochemical; conditions: Rb protein substrate, 1 μM ATP
Description: (§1) To determine inhibition of Cdk4, Cdk2 and Cdk1 activity, kinase assays were conducted using FlashPlate™ assays (NEN™-Life Science Products). FlashPlate assays were performed using recombinant human cyclin B-CDK1, human cyclin E-CDK2 or human cyclin D1-CDK4 complexes. GST-cyclinE (GST-cycE), CDK2, GST-cyclinB (GST-cycB), CDK1, GST-CDK4 and cyclin D1 (cycD1) cDNA clones in baculovirus vectors were provided by Dr. W. Harper at the Baylor College of Medicine, Houston, Tex. Proteins were co-expressed in High Five™ insect cells and the complex was purified on glutathione Sepharose resin (Pharmacia, Piscataway, N.J.) as previously described (Harper, J. W. et al. Cell 1993, 75, 805–816). A 6×-Histidine tagged truncated form of retinoblastoma (Rb) protein (amino acid 386–928) was used as the substrate for the cycD1-CDK4, cycB-CDK1 and the cycE-CDK2 assays (the expression plasmid was provided by Dr. Veronica Sullivan, Department of Molecular Virology, Roche Research Centre, Welwyn Garden City, United Kingdom). The Rb protein is a natural substrate for phosphorylation by CDK4, CDK2 and CDK1 (see Herwig and Strauss Eur. J. Biochem. Vol. 246 (1997) pp. 581–601 and the references cited therein).
(§2) The expression of the 62 Kd protein was under the control of an IPTG inducible promoter in an M15 E. coli strain. Cells were lysed by sonication and purification was carried out by binding lysates at pH 8.0 to a Ni-chelated agarose column pretreated with 1 mM imidazole. The resin was then washed several times with incrementally decreasing pH buffers to pH 6.0, and eluted with 500 mM imidazole. Eluted protein was dialysed against 20 mM HEPES pH 7.5, 30% glycerol, 200 mM NaCl, and 1 mM DTT. Purified Rb fusion protein stocks were quantitated for protein concentration, aliquoted, and stored at −70° C.
(§3) For all three kinase assays reported herein, 96-well FlashPlates were coated with Rb protein at 10 μg/ml, using 100 μl per well. Plates were incubated at 4° C. overnight or at room temperature for 3 hours on a shaker. To control for nonspecific phosphorylation, one row of wells was coated with 100 μl/well coating buffer (20 mM HEPES, 0.2 M NaCl). Plates were then washed twice with wash buffer (0.01% Tween 20 in phosphate-buffered saline). Compounds to be tested (“test compounds”) were added to the wells at 5× final concentration. Reactions were initiated by immediate addition of 40 μl reaction mix (25 mM HEPES, 20 mM MgCl2, 0.002% Tween 20, 2 mM DTT, 1 μM ATP, 4 nM ^33P-ATP) and a sufficient amount of enzyme to give counts that were at least 10-fold above background. Plates were incubated at room temperature on a shaker for 30 minutes. Plates were washed four times with the wash buffer, sealed, and counted on the TopCount scintillation counter (Packard Instrument Co., Downers Grove, Ill. The percent inhibition of Rb phosphorylation, which is a measure of the inhibition of CDK activity, was determined according to the following formula:
(§4) [formula] where “test compound” refers to the average counts per minute of the test duplicates, “nonspecific” refers to the average counts per minute when no CyclinD/Cdk4, etc., was added, and “total” refers to the average counts per minute when no compound was added. The IC50 value is the concentration of test compound that reduces by 50% the protein-kinase induced incorporation of the radiolabel under the test conditions described. B: Ki Measurement

human cyclin B-CDK1 = human cyclin B-CDK1 (Homo sapiens, UniProt P06493); test: FlashPlate kinase assay, IC50 measurement, cyclin B-CDK1; type: biochemical; conditions: Rb protein substrate, 1 μM ATP
Description: as §1, §2, §3, §4

human cyclin E-CDK2 = human cyclin E-CDK2 (Homo sapiens, UniProt P24941); test: FlashPlate kinase assay, IC50 measurement, cyclin E-CDK2; type: biochemical
Description: To determine inhibition of Cdk4, Cdk2 and Cdk1 activity, kinase assays were conducted using FlashPlate™ assays (NEN™-Life Science Products). FlashPlate assays were performed using recombinant human cyclin B-CDK1, human cyclin E-CDK2 or human cyclin D1-CDK4 complexes. GST-cyclinE (GST-cycE), CDK2, GST-cyclinB (GST-cycB), CDK1, GST-CDK4 and cyclin D1 (cycD1) cDNA clones in baculovirus vectors were provided by Dr. W. Harper at the Baylor College of Medicine, Houston, Tex.
as §2, §3
[formula] where “test compound” refers to the average counts per minute of the test duplicates, “nonspecific” refers to the average counts per minute when no CyclinD/Cdk4, etc., was added, and “total” refers to the average counts per minute when no compound was added. […] B: Ki Measurement

HCT116 cells = test: Tetrazolium dye proliferation assay (MTT assay); type: cell-based; conditions: Homo sapiens, HCT-116; 90% inhibition of cell proliferation, HCT116 colorectal carcinoma cell line
Description: The cell line used was HCT116, a colorectal carcinoma cell line obtained from the American Type Cell Culture Collection (ATCC; Rockville, Md.). The cells were grown in McCoy's 5A medium supplemented with 10% FCS and L-glutamine.
Cells were plated at the appropriate seeding density to give logarithmic growth over the course of the assay in a 96-well tissue culture plate. Plates were incubated overnight at 37° C. in a humidified incubator with 5% CO2. The next day, test compounds were serially diluted to four times the final concentration in the appropriate medium containing 1.2% DMSO. One-fourth final volume of each dilution was added in duplicate to the plates containing cells. The same volume of 1.2% DMSO in medium was added to a row of “control wells” such that the final concentration of DMSO in each well was 0.3%. Wells to which no cells were added served as the “blank.” Wells to which no inhibitor was added served as “no inhibitor control.” The plates were) returned to the incubator, and at set time points (determined by their growth curves) plates were analyzed as described below.
3-(4,5-dimethylthiazole-2-yl)-2,5-diphenyl-2H-tetrazolium bromide (thiazolyl blue; MTT; Sigma) was added to each well to yield a final concentration of 1 mg/ml. Plates were returned to the incubator for 2.5–3 hours at 37° C. The MTT-containing medium was removed and the resulting formazan metabolite was solubilized in 100% ethanol with shaking for 15 minutes at room temperature. Absorbance readings were taken in a microtiter plate reader (Dynatech and Molecular Devices plate readers were used interchangeably) at a wavelength of 570 nm with a 650 nm reference. Percent inhibition (% INH) is calculated by subtracting the absorbance of the blank well from all wells, then subtracting the ratio of the average absorbance of each test duplicate (SAVE) by the average of the controls (CAVE) from 1.00. The final number is then multiplied by 100(% INH=(1.00−SAVE/CAVE)×100).

[1] = Rb protein substrate, 1 μM ATP, unit inferred, read-out: CDK2 IC50
[2] = Rb protein substrate, 1 μM ATP, read-out: CDK2 IC50

Sequence of human cyclin B-CDK1 (P06493 whole entry): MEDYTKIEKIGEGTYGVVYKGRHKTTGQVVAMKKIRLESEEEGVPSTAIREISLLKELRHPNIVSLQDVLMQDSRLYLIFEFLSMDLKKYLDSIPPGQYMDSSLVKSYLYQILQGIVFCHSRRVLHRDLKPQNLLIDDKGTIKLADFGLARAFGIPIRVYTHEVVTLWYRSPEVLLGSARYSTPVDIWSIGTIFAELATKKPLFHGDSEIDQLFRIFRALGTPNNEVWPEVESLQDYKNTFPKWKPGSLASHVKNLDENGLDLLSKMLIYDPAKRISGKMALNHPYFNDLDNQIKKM
Sequence of human cyclin B-CDK1 (P14635 whole entry partner): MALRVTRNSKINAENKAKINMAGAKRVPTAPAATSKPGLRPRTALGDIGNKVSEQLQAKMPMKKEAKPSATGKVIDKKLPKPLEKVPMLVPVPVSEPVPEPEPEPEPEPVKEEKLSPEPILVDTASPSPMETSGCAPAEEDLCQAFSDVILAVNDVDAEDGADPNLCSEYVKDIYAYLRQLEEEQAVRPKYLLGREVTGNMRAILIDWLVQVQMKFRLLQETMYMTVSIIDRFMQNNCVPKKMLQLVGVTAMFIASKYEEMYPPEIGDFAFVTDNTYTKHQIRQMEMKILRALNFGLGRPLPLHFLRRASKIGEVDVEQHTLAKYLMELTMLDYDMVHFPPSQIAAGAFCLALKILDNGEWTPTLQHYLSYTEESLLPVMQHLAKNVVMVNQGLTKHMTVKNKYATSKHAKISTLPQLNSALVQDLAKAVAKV
Sequence of human cyclin D1-CDK4 (P11802 whole entry): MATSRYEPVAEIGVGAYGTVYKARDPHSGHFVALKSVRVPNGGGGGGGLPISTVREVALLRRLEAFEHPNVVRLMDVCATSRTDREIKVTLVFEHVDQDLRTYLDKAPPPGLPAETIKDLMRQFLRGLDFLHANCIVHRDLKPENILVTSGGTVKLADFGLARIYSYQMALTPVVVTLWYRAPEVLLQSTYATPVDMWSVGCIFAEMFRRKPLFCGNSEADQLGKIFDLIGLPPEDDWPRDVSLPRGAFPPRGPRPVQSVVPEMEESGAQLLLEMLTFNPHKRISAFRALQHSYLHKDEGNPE
Sequence of human cyclin D1-CDK4 (P24385 whole entry partner): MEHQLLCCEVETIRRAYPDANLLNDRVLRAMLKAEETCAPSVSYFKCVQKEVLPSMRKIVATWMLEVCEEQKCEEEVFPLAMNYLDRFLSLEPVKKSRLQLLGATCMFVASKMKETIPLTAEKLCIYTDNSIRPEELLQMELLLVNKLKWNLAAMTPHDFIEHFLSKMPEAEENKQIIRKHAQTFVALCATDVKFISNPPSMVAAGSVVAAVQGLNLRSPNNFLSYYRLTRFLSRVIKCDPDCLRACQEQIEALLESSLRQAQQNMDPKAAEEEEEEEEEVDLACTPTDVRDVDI

melting point	IC50 (human cyclin D1-CDK4) [µM]	IC50 (human cyclin B-CDK1) [µM]	IC90 (HCT116 cells) [µM]	Structure (SMILES)	further results
238 to 239 °C (dec.)	–	–	–	COc1ccc(F)c(F)c1C(=O)c1cnc(Cl)nc1N [Example 289, (4-Amino-2-chloro-pyrimidin-5-yl)-(2,3-difluoro-6-methoxy-phenyl)-methanone]	–
–	0.01	0.128	2.4	COc1cc(F)c(F)c(F)c1C(=O)c1cnc(NC2CCN(C(C)=O)CC2)nc1N [Example 204, 1-[4-[4Amino-5-(2,3,4-trifluoro-6-methoxy-benzoyl)-pyrimidin-2-ylamino]-piperidin-1-yl]-ethanone]	IC50 (human cyclin E-CDK2; [1]): 0.051 µM
99 to 101 °C	–	–	–	COc1ccc(F)c(F)c1C(O)c1cnc(Cl)nc1Cl (racemic) [Example 287, rac-(2,4-Dichloro-pyrimidin-5-yl)-(2,3-difluoro-6-methoxy-phenyl)-methanol]	–
–	0.459	0.469	6.44	COC(=O)N1CCCC(Nc2ncc(C(=O)c3ccccc3OC)c(N)n2)C1 (stereo not drawn) [Example 54, 3-[4-Amino-5-(2-methoxy-benzoyl)-pyrimidin-2-ylamino]-piperidine-1-carboxylic acid methyl ester]	IC50 (human cyclin E-CDK2; [2]): 0.713 µM
–	0.171	3.56	20.9	COc1ccccc1C(=O)c1cnc(Nc2ccc(N3CCN(C(C)C)CC3)cc2)nc1N [Example 8, [4-Amino-2-[4-(4-isopropyl-piperazin-1-yl)-phenylamino]-pyrimidin-5-yl]-(2-methoxy-phenyl)-methanone]	IC50 (human cyclin E-CDK2; [2]): 10 µM
–	0.001	0.039	0.274	COc1ccc(F)c(F)c1C(=O)c1cnc(NC2CCN(S(=O)(=O)CCCN3CCN(C)CC3)CC2)nc1N [Example 228, (4-Amino-2-[1-[3-(4-methyl-piperazin-1-yl)-propan-1-sulfonyl]-piperidin-4-ylamino]-pyrimidin-5-yl)-(2,3-difluoro-6-methoxy-phenyl)-methanone]	IC50 (human cyclin E-CDK2; [1]): 0.017 µM
174 to 175 °C	–	–	–	CCS(=O)(=O)c1ncc(C(=O)c2cc(F)ccc2OC)c(N)n1 [Example 48, (4-Amino-2-ethanesulfonyl-pyrimidin-5-yl)-(5-fluoro-2-methoxy-phenyl)-methanone]	–
137 to 139 °C	–	–	–	COc1ccc(F)c(F)c1C(=O)c1cnc(Cl)nc1Cl [Example 288, (2,4-Dichloro-pyrimidin-5-yl)-(2,3-difluoro-6-methoxy-phenyl)-methanone]	–
249 to 250 °C	–	–	–	CS(=O)(=O)N1CCC(Nc2ncc(C(=O)c3ccccc3)c(N)n2)CC1 [Example 283, [4-Amino-2-(1-methanesulfonyl-piperidin-4-ylamino)-pyrimidin-5-yl]-phenyl-methanone]	–
217 to 218 °C	–	–	–	COc1ccc(F)c(F)c1C(=O)c1cnc(NC2CCN(S(N)(=O)=O)CC2)nc1N [Example 285, 4-[4-Amino-5-(2,3-difluoro-6-methoxy-benzoyl)-pyrimidin-2-ylamino]-piperidine-1-sulfonic acid amide]	–
–	0.005	0.028	0.32	COc1ccc(F)c(F)c1C(=O)c1cnc(N[C@H]2CC[C@H](N3CCCS3(=O)=O)CC2)nc1N [Example 298, Trans-[4-Amino-2-[4-(1,1-dioxo-1λ^6-isothiazolidin-2-yl)-cyclohexylamino]-pyrimidin-5-yl]-(2,3-difluoro-6-methoxy-phenyl)-methanone]	IC50 (human cyclin E-CDK2; [2]): 0.008 µM
263 °C (dec.)	–	–	–	COc1ccc(F)c(F)c1C(=O)c1cnc(NC2CCN(C=O)CC2)nc1N [Example 284, 4-[4-Amino-5-(2,3-difluoro-6-methoxy-benzoyl)-pyrimidin-2-ylamino]-piperidine-1-carbaldehyde]	–
–	0.015	0.008	0.374	COc1ccc(F)c(F)c1C(=O)c1cnc(N[C@H]2CC[C@H](NS(=O)(=O)CCCN3CCOCC3)CC2)nc1N [Example 294, Trans-3-Morpholin-4-yl-propane-1-sulfonic acid [4-[4-amino-5-(2,3-difluoro-6-methoxy-benzoyl)-pyrimidin-2-ylamino]-cyclohexyl]-amide]	IC50 (human cyclin E-CDK2; [2]): 0.005 µM
122 to 124 °C (dec.)	–	–	–	COc1ccc(F)cc1C(=O)c1cnc(NC2CCN(C(=O)OC(C)(C)C)CC2)nc1N [Example 164, 4-[4-Amino-5-(5-fluoro-2-methoxy-benzoyl)-pyrimidin-2-ylamino]-piperidine-1-carboxylic acid tert-butyl ester]	–
150 to 152 °C	–	–	–	CC[S+]([O-])c1ncc(C(=O)c2cc(F)ccc2OC)c(N)n1 (stereo not drawn) [Example 163, (4-Amino-2-ethanesulfinyl-pyrimidin-5-yl)-(5-fluoro-2-methoxy-phenyl)-methanone]	–
153 °C (dec.)	–	–	–	COc1ccc(F)c(F)c1C(=O)c1cnc(NC2CCN(S(=O)(=O)NC(C)=O)CC2)nc1N [Example 286, 4-[4-Amino-5-(2,3-difluoro-6-methoxy-benzoyl)-pyrimidin-2-ylamino]-piperidine-1-sulfonic acid acetyl-amide]	–

Structure (SMILES)	melting point	IC50 (human cyclin D1-CDK4) [µM]	IC50 (human cyclin B-CDK1) [µM]	IC90 (HCT116 cells) [µM]	further results
COc1ccc(F)c(F)c1C(=O)c1cnc(N[C@H]2CC[C@H](NCCO)CC2)nc1N [Example 290, Trans-[4-Amino-2-[4-(2-hydroxy-ethylamino)-cyclohexylamino]-pyrimidin-5-yl}-(2,3-difluoro-6-methoxy-phenyl)-methanone]	–	0.02	0.018	0.179	IC50 (human cyclin E-CDK2; [2]): 0.005 µM
COc1cc(F)c(F)c(F)c1C(=O)c1cnc(NC2CCN(S(C)(=O)=O)CC2)nc1N [Example 207, [4-Amino-2-(1-methanesulfonyl-piperidin-4-ylamino)-pyrimidin-5-y]-(2,3,4-trifluoro-6-methoxy-phenyl)-methanone]	–	0.001	0.005	0.63	IC50 (human cyclin E-CDK2): 0.002 µM
